Twelve molecules from patent US8987195B2 (priority 2012, dated 2015) can be followed below.

pIC50: −log10 of the molar value.

The target in one assay is HCV NS3/4A protease genotype 1b (Hepatitis C virus genotype 1b, UniProt P26663). Description: HCV NS3/4A protease time-resolved fluorescence (TRF) assay, Ki against genotype 1b. In kind it is biochemical. The following applies: IC50 [gt-1b] (nM), NS3/4A genotype 1b, enzyme 0.2 nM. The procedure: Measuring NS3/4A Inhibitory Activity (Ki) Against Genotype 1b, Against A156T Mutants and Against Genotype 3a
One assay for measuring inhibitory activity is HCV NS3 protease time-resolved fluorescence (TRF) assay as described below and in Mao et al., Anal. Biochem. 373:1-8, 2008 and International Patent Application Publication WO 2006/102087. A NS3 protease assay can be performed, for example, in a final volume of 20 μl assay buffer containing 50 mM HEPES, pH 7.5, 150 mM NaCl, 15% glycerol, 0.15% TRITON X-100, 10 mM DTT, and 0.1% PEG 8000. NS3 and NS4A protease is pre-incubated with various concentrations of inhibitors in DMSO for 30 min. The reaction is initiated by adding the TRF peptide substrate (final concentration 25 nM). NS3 mediated hydrolysis of the substrate was run for 2.5 hours at room temperature. Product fluorescence is detected using A Pherastar Plus plate reader (BMG) or Envision (Perkin Elmer Life and Analytical Sciences with excitation at 340 nm and emission at 615 nm using the appropriate delay time optimized for the europium fluorescence probe. Testing concentrations of different enzyme forms are selected to result in a signal to background ratio (S/B) of 10-30. IC50 values are derived using a standard four-parameter fit to the data. Ki values are derived from IC50 values using the following formula, IC50=Ki(1+[S]/KM), Eqn (1), where [S] is the concentration of substrate peptide in the reaction and KM is the Michaelis constant. See P. Gallinari et al., 38 BIOCHEM. 5620-32 (1999); P. Gallinari et al., 72 J. VIROL. 6758-69 (1998); M. Taliani et al., 240 ANAL. BIOCHEM. 60-67 (1996); Mao et al., Analytical Biochemistry 373: 1-8, 2008.
The assay described above was run against genotype 1b at a concentration of 0.2 nM, against A156T mutant strains at a concentration of 0.4 nM, and against genotype 3a at a concentration of 0.025 nM.
`Cc1nc2ccc(OC(F)(F)F)cc2c2c1O[C@@]1(C[C@H]3C(=O)N[C@]4(C(=O)NS(=O)(=O)C5(C)CC5)C[C@H]4/C=C\CCCCC[C@H](NC(=O)OC(C)(C)C)C(=O)N3C1)CC2(F)F` [Example 220, tert-butyl [(2S,6S,12Z,13aS,14aR,16aS)-1′,1′-difluoro-5′-methyl-14a-{[(1-methylcyclopropyl)sulfonyl]carbamoyl}-5,16-dioxo-9′-(trifluoromethoxy)-1,1′,2′,5,6,7,8,9,10,11,13a,14,14a,15,16,16a-hexadecahydrospiro[cyclopropa[e]pyrrolo[1,2-a][1,4]diazacyclopentadecine-2,3′-pyrano[2,3-c]quinolin]-6-yl]carbamate] registered an IC50 of 0.033 nM.

For `COc1ccc2nc(C3CC3)c3c(c2c1)C(F)(F)C[C@]1(C[C@H]2C(=O)N[C@]4(C(=O)NS(=O)(=O)C5(C)CC5)C[C@H]4/C=C\CCCCC[C@H](NC(=O)OC4CCCC4)C(=O)N2C1)O3` [Example 247, cyclopentyl [(2S,6S,12Z,13aS,14aR,16aS)-5′-cyclopropyl-1′,1′-difluoro-9′-methoxy-14a-{[(1-methylcyclopropyl)sulfonyl]carbamoyl}-5,16-dioxo-1,1′,2′,5,6,7,8,9,10,11,13a,14,14a,15,16,16a-hexadecahydrospiro[cyclopropa[e]pyrrolo[1,2-a][1,4]diazacyclopentadecine-2,3′-pyrano[2,3-c]quinolin]-6-yl]carbamate], the concentration for half-maximal inhibition (IC50) stood at 0.013 nM.

`Cc1nc2ccc(C(F)(F)F)cc2c2c1O[C@]1(CC2)C[C@H]2C(=O)N[C@]3(C(=O)NS(=O)(=O)C4(C)CC4)C[C@H]3/C=C\CCCCC[C@H](NC(=O)OCC(C)C)C(=O)N2C1` [Example 253, 2-methylpropyl [(2R,6S,12Z,13aS,14aR,16aS)-5′-methyl-14a-{[(1-methylcyclopropyl)sulfonyl]carbamoyl}-5,16-dioxo-9′-(trifluoromethyl)-1,1′,2′,5,6,7,8,9,10,11,13a,14,14a,15,16,16a-hexadecahydrospiro[cyclopropa[e]pyrrolo[1,2-a][1,4]diazacyclopentadecine-2,3′-pyrano[2,3-c]quinolin]-6-yl]carbamate] returned an IC50 of 0.014 nM.

The assay is the same for the next values; noted with them: IC50 [gt-1b] (nM), NS3/4A genotype 1b, enzyme 0.2 nM; K+ salt.
Take `COc1ccc2nc(C)c3c(c2c1)CC[C@]1(C[C@H]2C(=O)N[C@]4(C(=O)NS(=O)(=O)C5(C)CC5)C[C@H]4/C=C\CCCCC[C@H](NC(=O)O[C@H](C)C(C)C)C(=O)N2C1)O3` [Example 214, (2R)-3-methylbutan-2-yl [(2R,6S,12Z,13aS,14aR,16aS)-9′-methoxy-5′-methyl-14a-{[(1-methylcyclopropyl)sulfonyl]carbamoyl}-5,16-dioxo-1,1′,2′,5,6,7,8,9,10,11,13a,14,14a,15,16,16a-hexadecahydrospiro[cyclopropa[e]pyrrolo[1,2-a][1,4]diazacyclopentadecine-2,3′-pyrano[2,3-c]quinolin]-6-yl]carbamate]: the IC50 is 0.005 nM.

For the molecule `COc1ccc2nc(C)c3c(c2c1)CC[C@]1(C[C@H]2C(=O)N[C@]4(C(=O)NS(=O)(=O)C5(C)CC5)C[C@H]4/C=C\CCCCC[C@H](NC(=O)O[C@@H](C)C(C)C)C(=O)N2C1)O3` [Example 215, (2S)-3-methylbutan-2-yl [(2R,6S,12Z,13aS,14aR,16aS)-9′-methoxy-5′-methyl-14a-{[(1-methylcyclopropyl)sulfonyl]carbamoyl}-5,16-dioxo-1,1′,2′,5,6,7,8,9,10,11,13a,14,14a,15,16,16a-hexadecahydrospiro[cyclopropa[e]pyrrolo[1,2-a][1,4]diazacyclopentadecine-2,3′-pyrano[2,3-c]quinolin]-6-yl]carbamate], the IC50 worked out at 0.005 nM.

Still in this assay, the particulars now being: IC50 [gt-1b], NS3/4A protease TRF assay, genotype 1b enzyme 0.2 nM.
Molecule `Cc1ccc2nc(C(F)(F)F)c3c(c2c1)CC[C@]1(C[C@H]2C(=O)N[C@]4(C(=O)NS(=O)(=O)C5(C)CC5)C[C@H]4/C=C\CCCCC[C@H](NC(=O)OCC(C)(C)C)C(=O)N2C1)O3` [Example 391, 2,2-dimethylpropyl [(2R,6S,12Z,13aS,14aR,16aS)-9′-methyl-14a-{[(1-methylcyclopropyl)sulfonyl]carbamoyl}-5,16-dioxo-5′-(trifluoromethyl)-1,1′,2′,5,6,7,8,9,10,11,13a,14,14a,15,16,16a-hexadecahydrospiro[cyclopropa[e]pyrrolo[1,2-a][1,4]diazacyclopentadecine-2,3′-pyrano[2,3-c]quinolin]-6-yl]carbamate] showed a pIC50 of 10.59.

On to `Cc1ccc2nc(C(F)(F)F)c3c(c2c1)CC[C@]1(C[C@H]2C(=O)N[C@]4(C(=O)NS(=O)(=O)C5(C)CC5)C[C@H]4/C=C\CCCCC[C@H](NC(=O)OC4CCCC4)C(=O)N2C1)O3` [Example 392, cyclopentyl [(2R,6S,12Z,13aS,14aR,16aS)-9′-methyl-14a-{[(1-methylcyclopropyl)sulfonyl]carbamoyl}-5,16-dioxo-5′-(trifluoromethyl)-1,1′,2′,5,6,7,8,9,10,11,13a,14,14a,15,16,16a-hexadecahydrospiro[cyclopropa[e]pyrrolo[1,2-a][1,4]diazacyclopentadecine-2,3′-pyrano[2,3-c]quinolin]-6-yl]carbamate], for which the pIC50 is 10.85.

Consider `Cc1ccc2nc(C(F)(F)F)c3c(c2c1)CC[C@]1(C[C@H]2C(=O)N[C@]4(C(=O)NS(=O)(=O)C5(C)CC5)C[C@H]4/C=C\CCCCC[C@H](NC(=O)OC(C)(C)C(F)(F)F)C(=O)N2C1)O3` [Example 393, 1,1,1-trifluoro-2-methylpropan-2-yl [(2R,6S,12Z,13aS,14aR,16aS)-9′-methyl-14a-{[(1-methylcyclopropyl)sulfonyl]carbamoyl}-5,16-dioxo-5′-(trifluoromethyl)-1,1′,2′,5,6,7,8,9,10,11,13a,14,14a,15,16,16a-hexadecahydrospiro[cyclopropa[e]pyrrolo[1,2-a][1,4]diazacyclopentadecine-2,3′-pyrano[2,3-c]quinolin]-6-yl]carbamate], for which the pIC50 was 10.59.

In turn, `Cc1nc2ccccc2c2c1O[C@]1(CC2)C[C@H]2C(=O)N[C@]3(C(=O)NS(=O)(=O)C4(C)CC4)C[C@H]3/C=C\CCCCC[C@H](Nc3nc(C4CC4)no3)C(=O)N2C1` [Example 394, (2R,6S,12Z,13aS,14aR,16aS)-6-[(3-cyclopropyl-1,2,4-oxadiazol-5-yl)amino]-5′-methyl-N-[(1-methylcyclopropyl)sulfonyl]-5,16-dioxo-1,1′,2′,6,7,8,9,10,11,13a,14,15,16,16a-tetradecahydrospiro[cyclopropa[e]pyrrolo[1,2-a][1,4]diazacyclopentadecine-2,3′-pyrano[2,3-c]quinoline]-14a(5H)-carboxamide] had a pIC50 of 10.24.

In turn, `Cc1ccc2nc(C(F)(F)F)c3c(c2c1)CC[C@]1(C[C@H]2C(=O)N[C@]4(C(=O)NS(=O)(=O)C5(C)CC5)C[C@H]4/C=C\CCCCC[C@H](NC(=O)O[C@H](C)C(C)C)C(=O)N2C1)O3` [Example 395, (2R)-3-methylbutan-2-yl [(2R,6S,12Z,13aS,14aR,16aS)-9′-methyl-14a-{[(1-methylcyclopropyl)sulfonyl]carbamoyl}-5,16-dioxo-5′-(trifluoromethyl)-1,1′,2′,5,6,7,8,9,10,11,13a,14,14a,15,16,16a-hexadecahydrospiro[cyclopropa[e]pyrrolo[1,2-a][1,4]diazacyclopentadecine-2,3′-pyrano[2,3-c]quinolin]-6-yl]carbamate] showed a negative logarithm of the IC50 (pIC50) of 10.85.

The molecule `Cc1ccc2nc(C(F)(F)F)c3c(c2c1)CC[C@]1(C[C@H]2C(=O)N[C@]4(C(=O)NS(=O)(=O)C5(C)CC5)C[C@H]4/C=C\CCCCC[C@H](NC(=O)O[C@@H](C)C(C)C)C(=O)N2C1)O3` [Example 396, (2S)-3-methylbutan-2-yl [(2R,6S,12Z,13aS,14aR,16aS)-9′-methyl-14a-{[(1-methylcyclopropyl)sulfonyl]carbamoyl}-5,16-dioxo-5′-(trifluoromethyl)-1,1′,2′,5,6,7,8,9,10,11,13a,14,14a,15,16,16a-hexadecahydrospiro[cyclopropa[e]pyrrolo[1,2-a][1,4]diazacyclopentadecine-2,3′-pyrano[2,3-c]quinolin]-6-yl]carbamate] had a pIC50 of 11.05. This pIC50 lies 0.20 log units higher than the previous one.

`[2H]C([2H])(F)Oc1ccc2nc(C)c3c(c2c1)[C@H](F)C[C@]1(C[C@H]2C(=O)N[C@]4(C(=O)NS(=O)(=O)C5(C)CC5)C[C@H]4/C=C\CCCCC[C@H](NC(=O)OC(C)(C)C)C(=O)N2C1)O3` [Example 397, tert-butyl [(1′R,2S,6S,12Z,13aS,14aR,16aS)-1′-fluoro-9′-{[fluoro(^2H2)methyl]oxy}-5′-methyl-14a-{[(1-methylcyclopropyl)sulfonyl]carbamoyl}-5,16-dioxo-1,1′,2′,5,6,7,8,9,10,11,13a,14,14a,15,16,16a-hexadecahydrospiro[cyclopropa[e]pyrrolo[1,2-a][1,4]diazacyclopentadecine-2,3′-pyrano[2,3-c]quinolin]-6-yl]carbamate]: the pIC50 is 11.22.
